Experimental data reported in PubChem BioAssay (NCI).
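Grown in 96-well plates, cells were treated for 48 hours with each compound at five concentrations. Insufficient inhibition: endpoint recorded as highest concentration tested. The concentration for 50% growth inhibition is given as GI50. TGI marks complete inhibition of growth.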

Experiments:
Test in all cases: NCI-60 cell line screen, 48 h; in the data active = GI50 below about 0.43 µM; inactive = the rest
LOX IMVI melanoma = test system: LOX IMVI melanoma
SF-268 CNS = test system: SF-268 CNS
OVCAR-8 ovarian = test system: OVCAR-8 ovarian
A498 renal = test system: A498 renal
OVCAR-4 ovarian = test system: OVCAR-4 ovarian
M14 melanoma = test system: M14 melanoma
RPMI-8226 leukemia = test system: RPMI-8226 leukemia
IGROV1 ovarian = test system: IGROV1 ovarian
SN12C renal = test system: SN12C renal
BT-549 breast = test system: BT-549 breast
NCI-H460 lung = test system: NCI-H460 lung
UACC-62 melanoma = test system: UACC-62 melanoma
HCT-116 colon = test system: HCT-116 colon
U251 CNS = test system: U251 CNS
NCI-H522 lung = test system: NCI-H522 lung
TK-10 renal = test system: TK-10 renal
K-562 leukemia = test system: K-562 leukemia
ACHN renal = test system: ACHN renal
SK-MEL-28 melanoma = test system: SK-MEL-28 melanoma
786-0 renal = test system: 786-0 renal
SK-MEL-5 melanoma = test system: SK-MEL-5 melanoma
MOLT-4 leukemia = test system: MOLT-4 leukemia
RXF 393 renal = test system: RXF 393 renal
HL-60(TB) leukemia = test system: HL-60(TB) leukemia
SK-MEL-2 melanoma = test system: SK-MEL-2 melanoma
HS 578T breast = test system: HS 578T breast
NCI-H23 lung = test system: NCI-H23 lung
HCC-2998 colon = test system: HCC-2998 colon
CCRF-CEM leukemia = test system: CCRF-CEM leukemia
SK-OV-3 ovarian = test system: SK-OV-3 ovarian
A549 NSCLC = test system: A549 NSCLC
SNB-19 CNS = test system: SNB-19 CNS
NCI-H226 lung = test system: NCI-H226 lung
UACC-257 melanoma = test system: UACC-257 melanoma
SR leukemia = test system: SR leukemia
MDA-MB-435 = test system: MDA-MB-435
SF-539 CNS = test system: SF-539 CNS
KM12 colon = test system: KM12 colon
MDA-MB-231 breast = test system: MDA-MB-231 breast
OVCAR-5 ovarian = test system: OVCAR-5 ovarian
DU-145 prostate = test system: DU-145 prostate
SF-295 CNS = test system: SF-295 CNS
PC-3 prostate = test system: PC-3 prostate
NCI/ADR-RES ovarian = test system: NCI/ADR-RES ovarian
HOP-92 NSCLC = test system: HOP-92 NSCLC
HCT-15 colon = test system: HCT-15 colon
UO-31 renal = test system: UO-31 renal
SW-620 colon = test system: SW-620 colon
CAKI-1 renal = test system: CAKI-1 renal
HOP-62 NSCLC = test system: HOP-62 NSCLC
EKVX NSCLC = test system: EKVX NSCLC
COLO 205 colon = test system: COLO 205 colon
MCF7 breast = test system: MCF7 breast
OVCAR-3 ovarian = test system: OVCAR-3 ovarian
HT29 colon = test system: HT29 colon
SNB-75 CNS = test system: SNB-75 CNS
MALME-3M melanoma = test system: MALME-3M melanoma

O[C@H]1C=C2[C@H](C[C@@H]1O)CN1C[C@H]2c2cc3c(cc21)OCO3
73 µM: TGI (OVCAR-4 ovarian)
51.1 µM: TGI (SK-OV-3 ovarian)
56 µM: TGI (HCC-2998 colon)
70.3 µM: TGI (NCI-H226 lung)
36.3 µM: TGI (ACHN renal)
55.5 µM: TGI (LOX IMVI melanoma)
61.1 µM: TGI (CAKI-1 renal)
87.7 µM: TGI (SK-MEL-28 melanoma)
76.6 µM: TGI (TK-10 renal)
94.1 µM: TGI (U251 CNS)
58.9 µM: TGI (SN12C renal)
> 100 µM: TGI (OVCAR-8 ovarian) | TGI (A498 renal) | TGI (M14 melanoma) | TGI (RPMI-8226 leukemia) | TGI (IGROV1 ovarian) | TGI (BT-549 breast) | TGI (NCI-H460 lung) | TGI (HCT-116 colon) | TGI (NCI-H522 lung) | TGI (K-562 leukemia) | TGI (786-0 renal) | TGI (SK-MEL-5 melanoma) | TGI (MOLT-4 leukemia) | TGI (RXF 393 renal) | TGI (SK-MEL-2 melanoma) | TGI (HS 578T breast) | TGI (CCRF-CEM leukemia) | TGI (SNB-19 CNS) | TGI (UACC-257 melanoma) | TGI (SR leukemia) | TGI (KM12 colon) | TGI (MDA-MB-231 breast) | TGI (OVCAR-5 ovarian) | TGI (DU-145 prostate) | TGI (PC-3 prostate) | TGI (NCI/ADR-RES ovarian) | TGI (HOP-92 NSCLC) | TGI (HCT-15 colon) | TGI (UO-31 renal) | TGI (SW-620 colon) | TGI (HOP-62 NSCLC) | TGI (EKVX NSCLC) | TGI (COLO 205 colon) | TGI (MCF7 breast)
86.5 µM: TGI (SF-268 CNS)
96.6 µM: TGI (NCI-H23 lung)
90.4 µM: TGI (MDA-MB-435)
88.8 µM: TGI (A549 NSCLC)
84.6 µM: TGI (OVCAR-3 ovarian)
87.5 µM: TGI (HL-60(TB) leukemia)
96.2 µM: TGI (UACC-62 melanoma)
80.2 µM: TGI (SF-539 CNS)
67.2 µM: TGI (SF-295 CNS)
inactive: GI50 (LOX IMVI melanoma) 18.7 µM | GI50 (SF-268 CNS) 25.4 µM | GI50 (OVCAR-8 ovarian) 30.2 µM | GI50 (A498 renal) 81.8 µM | GI50 (OVCAR-4 ovarian) 32.7 µM | GI50 (M14 melanoma) 24.9 µM | GI50 (RPMI-8226 leukemia) 35.8 µM | GI50 (IGROV1 ovarian) 62 µM | GI50 (SN12C renal) 18 µM | GI50 (BT-549 breast) 37.8 µM | GI50 (NCI-H460 lung) 21.7 µM | GI50 (UACC-62 melanoma) 22.1 µM | GI50 (HCT-116 colon) 21.6 µM | GI50 (U251 CNS) 27.6 µM | GI50 (NCI-H522 lung) 94.5 µM | GI50 (TK-10 renal) 20.3 µM | GI50 (K-562 leukemia) 49.9 µM | GI50 (ACHN renal) 8.92 µM | GI50 (SK-MEL-28 melanoma) 19 µM | GI50 (786-0 renal) 25.5 µM | GI50 (SK-MEL-5 melanoma) 29.4 µM | GI50 (MOLT-4 leukemia) > 100 µM | GI50 (RXF 393 renal) 50.3 µM | GI50 (HL-60(TB) leukemia) 23.3 µM | GI50 (SK-MEL-2 melanoma) 99.5 µM | GI50 (HS 578T breast) 79.9 µM | GI50 (NCI-H23 lung) 29.3 µM | GI50 (HCC-2998 colon) 20.4 µM | GI50 (CCRF-CEM leukemia) > 100 µM | GI50 (SK-OV-3 ovarian) 6.15 µM | GI50 (A549 NSCLC) 28.2 µM | GI50 (SNB-19 CNS) 24.9 µM | GI50 (NCI-H226 lung) 22.1 µM | GI50 (UACC-257 melanoma) 41.6 µM | GI50 (SR leukemia) 41 µM | GI50 (MDA-MB-435) 20.1 µM | GI50 (SF-539 CNS) 22.4 µM | GI50 (KM12 colon) 23.4 µM | GI50 (MDA-MB-231 breast) 33 µM | GI50 (OVCAR-5 ovarian) 30.2 µM | GI50 (DU-145 prostate) 19 µM | GI50 (SF-295 CNS) 15.1 µM | GI50 (PC-3 prostate) 49.1 µM | GI50 (NCI/ADR-RES ovarian) 70.5 µM | GI50 (HOP-92 NSCLC) 83.1 µM | GI50 (HCT-15 colon) 30.1 µM | GI50 (UO-31 renal) 61.2 µM | GI50 (SW-620 colon) 49.1 µM | GI50 (CAKI-1 renal) 23.5 µM | GI50 (HOP-62 NSCLC) 30.5 µM | GI50 (EKVX NSCLC) 39.6 µM | GI50 (COLO 205 colon) 21.4 µM | GI50 (MCF7 breast) 28.8 µM | GI50 (OVCAR-3 ovarian) 42.1 µM

CC1(C)N([O-])[N+](=O)C1(C)Br (centres undefined)
> 100 µM: TGI (LOX IMVI melanoma) | TGI (SF-268 CNS) | TGI (OVCAR-8 ovarian) | TGI (OVCAR-4 ovarian) | TGI (M14 melanoma) | TGI (HT29 colon) | TGI (IGROV1 ovarian) | TGI (SN12C renal) | TGI (BT-549 breast) | TGI (NCI-H460 lung) | TGI (UACC-62 melanoma) | TGI (HCT-116 colon) | TGI (U251 CNS) | TGI (NCI-H522 lung) | TGI (TK-10 renal) | TGI (K-562 leukemia) | TGI (ACHN renal) | TGI (SNB-75 CNS) | TGI (SK-MEL-28 melanoma) | TGI (786-0 renal) | TGI (SK-MEL-5 melanoma) | TGI (MOLT-4 leukemia) | TGI (RXF 393 renal) | TGI (SK-MEL-2 melanoma) | TGI (HS 578T breast) | TGI (NCI-H23 lung) | TGI (HCC-2998 colon) | TGI (CCRF-CEM leukemia) | TGI (SK-OV-3 ovarian) | TGI (A549 NSCLC) | TGI (SNB-19 CNS) | TGI (NCI-H226 lung) | TGI (UACC-257 melanoma) | TGI (SR leukemia) | TGI (MDA-MB-435) | TGI (SF-539 CNS) | TGI (KM12 colon) | TGI (MDA-MB-231 breast) | TGI (OVCAR-5 ovarian) | TGI (SF-295 CNS) | TGI (PC-3 prostate) | TGI (NCI/ADR-RES ovarian) | TGI (HCT-15 colon) | TGI (UO-31 renal) | TGI (SW-620 colon) | TGI (CAKI-1 renal) | TGI (HOP-62 NSCLC) | TGI (EKVX NSCLC) | TGI (COLO 205 colon) | TGI (MCF7 breast) | TGI (OVCAR-3 ovarian)

CCN(CC)c1ccc2cc(C(=O)Nc3ccccc3OC)c(=N)oc2c1
35.3 µM: TGI (IGROV1 ovarian)
98.4 µM: TGI (HS 578T breast)
59.6 µM: TGI (PC-3 prostate)
23 µM: TGI (OVCAR-8 ovarian)
72.1 µM: TGI (CAKI-1 renal)
88.3 µM: TGI (HCT-15 colon)
89.8 µM: TGI (NCI-H23 lung)
> 100 µM: TGI (SF-268 CNS) | TGI (A498 renal) | TGI (OVCAR-4 ovarian) | TGI (M14 melanoma) | TGI (HT29 colon) | TGI (NCI-H460 lung) | TGI (UACC-62 melanoma) | TGI (HCT-116 colon) | TGI (U251 CNS) | TGI (K-562 leukemia) | TGI (ACHN renal) | TGI (SK-MEL-28 melanoma) | TGI (MALME-3M melanoma) | TGI (786-0 renal) | TGI (SK-MEL-5 melanoma) | TGI (SK-MEL-2 melanoma) | TGI (HCC-2998 colon) | TGI (SK-OV-3 ovarian) | TGI (A549 NSCLC) | TGI (SNB-19 CNS) | TGI (UACC-257 melanoma) | TGI (SR leukemia) | TGI (MDA-MB-435) | TGI (SF-539 CNS) | TGI (KM12 colon) | TGI (OVCAR-5 ovarian) | TGI (DU-145 prostate) | TGI (SF-295 CNS) | TGI (SW-620 colon) | TGI (HOP-62 NSCLC) | TGI (EKVX NSCLC) | TGI (COLO 205 colon) | TGI (MCF7 breast) | TGI (OVCAR-3 ovarian)
58.2 µM: TGI (LOX IMVI melanoma)
74.5 µM: TGI (BT-549 breast)
1.58 µM: TGI (UO-31 renal)
20.8 µM: TGI (CCRF-CEM leukemia)
90.8 µM: TGI (NCI/ADR-RES ovarian)
31.6 µM: TGI (HL-60(TB) leukemia)
88.7 µM: TGI (RPMI-8226 leukemia)
17.2 µM: TGI (MOLT-4 leukemia)
65.6 µM: TGI (NCI-H522 lung)
